From patent US10165777B2, “Substituted pyrazolylpyrazole derivative and use of same as herbicide” (KYOYU AGRI CO., LTD., priority 2015, dated 2019)

Columns and labels:
Assay type in all cases: in vivo
[1] = test system: Amaranthus retroflexus; assay: Farming soil treatment test; conditions: soil surface spray prior to weed growth, 30 days
Procedure: (§1) Field soil was filled into a 1/6000 are pot followed by seeding with Digitaria ciliaris, Chenopodium album and Amaranthus retroflexus and covering with soil. Wettable powders of compounds of formula (I) shown in Table 1 prepared in compliance with the preparation examples were diluted with water to the prescribed amount of chemical and uniformly sprayed onto each soil surface layer using 100 liters of sprayed water per 10 are prior to weed growth following seeding. After treating for 30 days in a glass greenhouse at an average atmospheric temperature of 30° C., the herbicidal efficacy thereof was investigated. Evaluation of herbicidal efficacy was carried out in the same manner as the above-mentioned Test Example 1.

[2] = test system: Digitaria ciliaris; assay: Farming soil treatment test; conditions: soil surface spray prior to weed growth, 30 days
Procedure: as §1

[3] = test system: Chenopodium album; assay: Farming soil treatment test; conditions: soil surface spray prior to weed growth, 30 days
Procedure: as §1

[4] = test system: Galinsoga parviflora; assay: Weed foliar treatment test (Test 4, 4.0 to 5.0 leaf stage); conditions: 10 g a.i./10 a; foliar spray at 4.0 to 5.0 leaf stage of Digitaria ciliaris; 20 days
Procedure: (§2) Field soil was filled into a 1/4500 are pot followed by seeding with Digitaria ciliaris and Galinsoga parviflora, covering with soil and cultivating in a glass greenhouse at an average atmospheric temperature of 25° C.
(§3) Wettable powders of Target Compound (I) shown in Table 1 prepared in compliance with the preparation examples were diluted with water to the prescribed amount of chemical and uniformly sprayed onto the weeds using 100 liters of sprayed water per 10 are when Digitaria ciliaris had grown to the 4.0 to 5.0 leaf stage (plant height: 10 cm to 15 cm).
(§4) After treating for 20 days in a glass greenhouse at an average atmospheric temperature of 25° C., the herbicidal efficacy thereof was investigated.
(§5) Evaluation of herbicidal efficacy was carried out in the same manner as the above-mentioned Test Example 1.

[5] = test system: Digitaria ciliaris; assay: as above; conditions: 10 g a.i./10 a; foliar spray at 4.0 to 5.0 leaf stage of Digitaria ciliaris (plant height 10 cm to 15 cm); 20 days
Procedure: as §2, §3, §4, §5

[6] = test system: Echinochloa crus-galli; assay: Paddy herbicidal activity test; conditions: irrigated pot, treated at 3.5 leaf stage of Echinochloa crus-galli, 30 days
Procedure: (§6) 1. Paddy Herbicidal Activity Test Rice paddy soil was filled into a 1/10000 are pot followed by the addition of suitable amounts of water and chemical fertilizer, kneading, seeding with Echinochloa crus-galli, Monochoria vaginalis and Scirpus juncoides and maintaining in an irrigated state at a water depth of 3 cm. Wettable powders of Target Compound (I) shown in Table 1 prepared in compliance with the preparation examples were diluted with a suitable amount of water, rice plants in the 2.0 leaf stage were transplanted during 3.5 leaf stage of Echinochloa crus-galli, and treated by dropping in chemical in the prescribed amount per 10 are using a pipette. After treating for 30 days in a glass greenhouse at an average atmospheric temperature of 30° C., the herbicidal efficacy thereof was investigated. Evaluation of herbicidal efficacy was carried out by comparing growth inhibition rate (%) with an untreated group, while evaluation of phytotoxicity was carried out by comparing growth inhibition rate (%) with the state of a complete eradication group, and were evaluated at 11 levels indicated below.

[7] = test system: Scirpus juncoides; assay: Paddy herbicidal activity test; conditions: irrigated pot, 30 days
Procedure: as §6

[8] = test system: Monochoria vaginalis; assay: Paddy herbicidal activity test; conditions: irrigated pot, 30 days
Procedure: as §6

[9] = test system: Amaranthus retroflexus; assay: Weed foliar treatment test (Test 3, 1.0 to 2.0 leaf stage); conditions: foliar spray at 1.0 to 2.0 leaf stage of Digitaria ciliaris, 3 weeks
Procedure: (§7) Soil was filled into a 1/6000 are pot followed by seeding with Digitaria ciliaris, Chenopodium album and Amaranthus retroflexus, covering with soil, and cultivating in a glass greenhouse at an average atmospheric temperature of 25° C. Wettable powders of Target Compound (I) shown in Table 1 prepared in compliance with the preparation examples were diluted with water to the prescribed amount of chemical and uniformly sprayed onto the weeds using 150 liters of sprayed water per 10 are when Digitaria ciliaris had grown to the 1.0 to 2.0 leaf stage. After treating for 3 weeks in a glass greenhouse at an average atmospheric temperature of 25° C., the herbicidal efficacy thereof was investigated. Evaluation of herbicidal efficacy was carried out in the same manner as the above-mentioned Test Example 1.

[10] = test system: Digitaria ciliaris; assay: as above; conditions: foliar spray at 1.0 to 2.0 leaf stage of Digitaria ciliaris, 3 weeks
Procedure: as §7

[11] = test system: Chenopodium album; assay: as above; conditions: foliar spray at 1.0 to 2.0 leaf stage of Digitaria ciliaris, 3 weeks
Procedure: as §7

[12] = test system: Oryza sativa; assay: Paddy herbicidal activity test, phytotoxicity to transplanted rice; conditions: rice transplanted in 2.0 leaf stage, 30 days
Procedure: as §6

Structure (SMILES) | herbicidal efficacy, Amaranthus retroflexus ([1]; 5 g a.i./10 a) | herbicidal efficacy, Amaranthus retroflexus ([1]; 10 g a.i./10 a) | herbicidal efficacy, Digitaria ciliaris ([2]; 5 g a.i./10 a) | herbicidal efficacy, Digitaria ciliaris ([2]; 10 g a.i./10 a) | herbicidal efficacy, Chenopodium album ([3]; 5 g a.i./10 a) | herbicidal efficacy, Chenopodium album ([3]; 10 g a.i./10 a) | herbicidal efficacy, Galinsoga parviflora [4] | herbicidal efficacy, Digitaria ciliaris [5] | herbicidal efficacy, Echinochloa crus-galli ([6]; 1 g a.i./10 a) | herbicidal efficacy, Echinochloa crus-galli ([6]; 5 g a.i./10 a) | herbicidal efficacy, Scirpus juncoides ([7]; 1 g a.i./10 a) | herbicidal efficacy, Scirpus juncoides ([7]; 5 g a.i./10 a) | herbicidal efficacy, Monochoria vaginalis ([8]; 1 g a.i./10 a) | herbicidal efficacy, Monochoria vaginalis ([8]; 5 g a.i./10 a) | herbicidal efficacy, Amaranthus retroflexus ([9]; 5 g a.i./10 a) | herbicidal efficacy, Amaranthus retroflexus ([9]; 10 g a.i./10 a) | herbicidal efficacy, Digitaria ciliaris ([10]; 5 g a.i./10 a) | herbicidal efficacy, Digitaria ciliaris ([10]; 10 g a.i./10 a) | herbicidal efficacy, Chenopodium album ([11]; 5 g a.i./10 a) | herbicidal efficacy, Chenopodium album ([11]; 10 g a.i./10 a) | also measured
N#Cc1cnn(-c2nn3c(c2Br)CCCC3)c1/C=C/c1ccccn1 [Compound 3.44, reference compound] | 0 (0% to less than 10% (growth inhibition rate)) | 2 (20% to less than 30%) | 0 (0% to less than 10% (growth inhibition rate)) | 1 (10% to less than 20%) | 2 (20% to less than 30%) | 3 (30% to less than 40%) | 0 (0% to less than 10% (growth inhibition rate)) | 0 (0% to less than 10% (growth inhibition rate)) | 1 (10% to less than 20%) | 2 (20% to less than 30%) | 0 (0% to less than 10% (growth inhibition rate)) | 1 (10% to less than 20%) | 2 (20% to less than 30%) | 2 (20% to less than 30%) | 0 (0% to less than 10% (growth inhibition rate)) | 0 (0% to less than 10% (growth inhibition rate)) | 0 (0% to less than 10% (growth inhibition rate)) | 0 (0% to less than 10% (growth inhibition rate)) | 1 (10% to less than 20%) | 2 (20% to less than 30%) | phytotoxicity, Oryza sativa ([12]; 1 g a.i./10 a): 0 (0% to less than 10% (growth inhibition rate)); phytotoxicity, Oryza sativa ([12]; 5 g a.i./10 a): 1 (10% to less than 20%)
N#Cc1cnn(-c2nn3c(c2Cl)CCCC3)c1/C=C/c1ccccn1 [Compound 3.43, reference compound] | 2 (20% to less than 30%) | 2 (20% to less than 30%) | 1 (10% to less than 20%) | 3 (30% to less than 40%) | 2 (20% to less than 30%) | 3 (30% to less than 40%) | 3 (30% to less than 40%) | 1 (10% to less than 20%) | 2 (20% to less than 30%) | 3 (30% to less than 40%) | 0 (0% to less than 10% (growth inhibition rate)) | 1 (10% to less than 20%) | 3 (30% to less than 40%) | 3 (30% to less than 40%) | 0 (0% to less than 10% (growth inhibition rate)) | 2 (20% to less than 30%) | 1 (10% to less than 20%) | 3 (30% to less than 40%) | 3 (30% to less than 40%) | 4 (40% to less than 50%) | phytotoxicity, Oryza sativa ([12]; 1 g a.i./10 a): 1 (10% to less than 20%); phytotoxicity, Oryza sativa ([12]; 5 g a.i./10 a): 2 (20% to less than 30%)
N#Cc1cnn(-c2nn3c(c2Cl)CCCC3)c1/C=C/c1ncccn1 [Compound 3.39, reference compound] | 2 (20% to less than 30%) | 3 (30% to less than 40%) | 3 (30% to less than 40%) | 4 (40% to less than 50%) | 4 (40% to less than 50%) | 4 (40% to less than 50%) | 3 (30% to less than 40%) | 2 (20% to less than 30%) | 1 (10% to less than 20%) | 2 (20% to less than 30%) | 0 (0% to less than 10% (growth inhibition rate)) | 0 (0% to less than 10% (growth inhibition rate)) | 2 (20% to less than 30%) | 3 (30% to less than 40%) | 1 (10% to less than 20%) | 2 (20% to less than 30%) | 2 (20% to less than 30%) | 3 (30% to less than 40%) | 4 (40% to less than 50%) | 5 (50% to less than 60%) | phytotoxicity, Oryza sativa ([12]; 1 g a.i./10 a): 0 (0% to less than 10% (growth inhibition rate)); phytotoxicity, Oryza sativa ([12]; 5 g a.i./10 a): 1 (10% to less than 20%)
N#Cc1cnn(-c2nn3c(c2Cl)CCCC3)c1N=Cc1ccncc1 [Compound 23] | 9 (90% to less than 100%) | 10 (100%) | 9 (90% to less than 100%) | 10 (100%) | 10 (100%) | 10 (100%) | 10 (100%) | 9 (90% to less than 100%) | 10 (100%) | 10 (100%) | 10 (100%) | 10 (100%) | 10 (100%) | 10 (100%) | 9 (90% to less than 100%) | 10 (100%) | 9 (90% to less than 100%) | 10 (100%) | 10 (100%) | 10 (100%) | phytotoxicity, Oryza sativa ([12]; 1 g a.i./10 a): 0 (0% to less than 10% (growth inhibition rate)); phytotoxicity, Oryza sativa ([12]; 5 g a.i./10 a): 1 (10% to less than 20%)
